Target: wild-type cap-binding domain of PB2 (Influenza A virus, UniProt P31345, R389K)
Parameters: species or system Influenza A/Victoria/3/1975(H3N2)

Row | Structure (SMILES) | Kd
1 | C[n+]1cn([C@@H]2O[C@H](COP(=O)(O)OP(=O)(O)OP(=O)(O)O)[C@@H](O)[C@H]2O)c2nc(N)[nH]c(=O)c21 [m^7GTP, 7-methyl-guanosine triphosphate] | 177 ± 34 µM
2 | Nc1nc2c(ncn2[C@@H]2O[C@H](COP(=O)(O)OP(=O)(O)OP(=O)(O)O)[C@@H](O)[C@H]2O)c(=O)[nH]1 [GTP] | 1020 ± 100 µM
